According to ChEMBL document CHEMBL5442219:

Tests used:
Conditions in all cases: Compound concentration 10 µM
[1] = target: T1, Muscarinic acetylcholine receptor M2 (Homo sapiens) (UniProt P08172)
T1 sequence (whole entry): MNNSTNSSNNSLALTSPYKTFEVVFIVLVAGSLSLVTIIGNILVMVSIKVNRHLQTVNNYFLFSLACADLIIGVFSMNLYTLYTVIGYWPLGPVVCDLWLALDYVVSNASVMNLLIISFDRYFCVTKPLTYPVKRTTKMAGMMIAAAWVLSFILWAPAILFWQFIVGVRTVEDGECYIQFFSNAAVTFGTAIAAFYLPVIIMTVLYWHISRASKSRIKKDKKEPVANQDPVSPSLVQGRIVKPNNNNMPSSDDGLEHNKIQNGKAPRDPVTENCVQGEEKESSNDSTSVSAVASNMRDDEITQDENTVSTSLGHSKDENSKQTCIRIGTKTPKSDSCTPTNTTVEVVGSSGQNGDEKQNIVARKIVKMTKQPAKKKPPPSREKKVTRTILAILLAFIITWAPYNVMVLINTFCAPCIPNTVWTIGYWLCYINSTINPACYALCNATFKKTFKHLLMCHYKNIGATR
Description: PDSP Primary Binding target: CHRM2 - Compounds are tested at 10 uM concentration, plate are incubated at room temperature in the dark for 90 minutes. Reaction are stopped by vacuum filtration onto 0.3% polyethyleneimine soaked filter mats using Filtermate harvester. Scintilation cocktail is then melted onto microwave-dried filters on a hot plate and the radio activity is counted in Microbia counter.

[2] = target: 5-hydroxytryptamine receptor 2A (Homo sapiens) (UniProt P28223)
Chain of 5-hydroxytryptamine receptor 2A (Homo sapiens) (P28223 whole entry): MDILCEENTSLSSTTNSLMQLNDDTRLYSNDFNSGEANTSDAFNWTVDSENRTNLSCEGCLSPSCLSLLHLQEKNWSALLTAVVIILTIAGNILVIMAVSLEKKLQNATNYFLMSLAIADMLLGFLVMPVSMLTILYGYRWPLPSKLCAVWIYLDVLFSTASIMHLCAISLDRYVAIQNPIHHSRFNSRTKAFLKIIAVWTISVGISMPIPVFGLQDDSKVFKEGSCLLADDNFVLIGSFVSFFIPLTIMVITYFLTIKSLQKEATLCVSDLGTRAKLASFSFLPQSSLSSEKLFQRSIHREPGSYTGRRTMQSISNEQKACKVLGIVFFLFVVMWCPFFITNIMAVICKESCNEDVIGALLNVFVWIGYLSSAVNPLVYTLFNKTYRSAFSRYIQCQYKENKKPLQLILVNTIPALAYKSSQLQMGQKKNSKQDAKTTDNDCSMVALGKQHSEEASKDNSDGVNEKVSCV
Description: PDSP Primary Binding target: HTR2A - Compounds are tested at 10 uM concentration, plate are incubated at room temperature in the dark for 90 minutes. Reaction are stopped by vacuum filtration onto 0.3% polyethyleneimine soaked filter mats using Filtermate harvester. Scintilation cocktail is then melted onto microwave-dried filters on a hot plate and the radio activity is counted in Microbia counter.

[3] = target: Sodium-dependent dopamine transporter (Homo sapiens) (UniProt Q01959)
Description: PDSP Primary Binding target: SLC6A3 - Compounds are tested at 10 uM concentration, plate are incubated at room temperature in the dark for 90 minutes. Reaction are stopped by vacuum filtration onto 0.3% polyethyleneimine soaked filter mats using Filtermate harvester. Scintilation cocktail is then melted onto microwave-dried filters on a hot plate and the radio activity is counted in Microbia counter.

[4] = target: D(3) dopamine receptor (Homo sapiens) (UniProt P35462)
Chain of D(3) dopamine receptor (Homo sapiens) (P35462 whole entry): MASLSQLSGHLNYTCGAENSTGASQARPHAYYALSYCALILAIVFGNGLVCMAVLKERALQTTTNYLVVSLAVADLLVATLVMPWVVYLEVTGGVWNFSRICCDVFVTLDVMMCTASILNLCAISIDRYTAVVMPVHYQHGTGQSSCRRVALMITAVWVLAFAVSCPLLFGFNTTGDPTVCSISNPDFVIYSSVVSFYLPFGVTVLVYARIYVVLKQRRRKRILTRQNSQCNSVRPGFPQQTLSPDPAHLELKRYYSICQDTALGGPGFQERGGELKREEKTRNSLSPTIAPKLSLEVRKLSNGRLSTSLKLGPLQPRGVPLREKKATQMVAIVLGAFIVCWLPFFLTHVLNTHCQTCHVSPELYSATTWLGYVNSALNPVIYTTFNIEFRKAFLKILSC
Description: PDSP Primary Binding target: DRD3 - Compounds are tested at 10 uM concentration, plate are incubated at room temperature in the dark for 90 minutes. Reaction are stopped by vacuum filtration onto 0.3% polyethyleneimine soaked filter mats using Filtermate harvester. Scintilation cocktail is then melted onto microwave-dried filters on a hot plate and the radio activity is counted in Microbia counter.

[5] = target: 5-hydroxytryptamine receptor 7 (Homo sapiens) (UniProt P34969)
Chain of 5-hydroxytryptamine receptor 7 (Homo sapiens) (P34969 whole entry): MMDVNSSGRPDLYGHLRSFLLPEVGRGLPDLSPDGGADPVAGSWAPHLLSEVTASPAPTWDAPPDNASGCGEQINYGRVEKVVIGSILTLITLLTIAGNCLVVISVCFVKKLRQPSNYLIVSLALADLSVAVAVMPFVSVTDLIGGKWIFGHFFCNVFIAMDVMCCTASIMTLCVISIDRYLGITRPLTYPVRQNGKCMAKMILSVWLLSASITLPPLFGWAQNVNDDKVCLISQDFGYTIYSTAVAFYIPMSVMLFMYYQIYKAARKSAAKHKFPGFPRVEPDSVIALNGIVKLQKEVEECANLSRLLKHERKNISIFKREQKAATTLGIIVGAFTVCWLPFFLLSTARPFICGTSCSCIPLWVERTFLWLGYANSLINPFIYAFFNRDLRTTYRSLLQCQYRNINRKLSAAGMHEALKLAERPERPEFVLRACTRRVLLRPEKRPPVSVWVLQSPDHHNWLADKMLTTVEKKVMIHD
Description: PDSP Primary Binding target: HTR7 - Compounds are tested at 10 uM concentration, plate are incubated at room temperature in the dark for 90 minutes. Reaction are stopped by vacuum filtration onto 0.3% polyethyleneimine soaked filter mats using Filtermate harvester. Scintilation cocktail is then melted onto microwave-dried filters on a hot plate and the radio activity is counted in Microbia counter.

[6] = target: T2, Muscarinic acetylcholine receptor M4 (Homo sapiens) (UniProt P08173)
T2 sequence (whole entry): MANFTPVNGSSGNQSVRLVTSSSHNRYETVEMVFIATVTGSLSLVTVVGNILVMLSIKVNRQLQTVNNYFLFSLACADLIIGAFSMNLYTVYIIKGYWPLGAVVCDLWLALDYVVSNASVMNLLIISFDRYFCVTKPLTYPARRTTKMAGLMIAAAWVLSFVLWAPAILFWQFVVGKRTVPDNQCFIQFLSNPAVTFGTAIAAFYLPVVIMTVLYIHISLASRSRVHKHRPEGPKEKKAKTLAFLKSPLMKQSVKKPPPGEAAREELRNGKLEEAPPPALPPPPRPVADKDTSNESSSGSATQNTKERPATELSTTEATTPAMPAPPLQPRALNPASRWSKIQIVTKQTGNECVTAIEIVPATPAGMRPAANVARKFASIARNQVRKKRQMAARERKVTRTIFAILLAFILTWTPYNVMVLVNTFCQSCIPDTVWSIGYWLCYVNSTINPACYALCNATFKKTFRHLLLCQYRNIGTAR
Description: PDSP Primary Binding target: CHRM4 - Compounds are tested at 10 uM concentration, plate are incubated at room temperature in the dark for 90 minutes. Reaction are stopped by vacuum filtration onto 0.3% polyethyleneimine soaked filter mats using Filtermate harvester. Scintilation cocktail is then melted onto microwave-dried filters on a hot plate and the radio activity is counted in Microbia counter.

[7] = target: T3, 5-hydroxytryptamine receptor 2C (Homo sapiens) (UniProt P28335)
T3 sequence (whole entry): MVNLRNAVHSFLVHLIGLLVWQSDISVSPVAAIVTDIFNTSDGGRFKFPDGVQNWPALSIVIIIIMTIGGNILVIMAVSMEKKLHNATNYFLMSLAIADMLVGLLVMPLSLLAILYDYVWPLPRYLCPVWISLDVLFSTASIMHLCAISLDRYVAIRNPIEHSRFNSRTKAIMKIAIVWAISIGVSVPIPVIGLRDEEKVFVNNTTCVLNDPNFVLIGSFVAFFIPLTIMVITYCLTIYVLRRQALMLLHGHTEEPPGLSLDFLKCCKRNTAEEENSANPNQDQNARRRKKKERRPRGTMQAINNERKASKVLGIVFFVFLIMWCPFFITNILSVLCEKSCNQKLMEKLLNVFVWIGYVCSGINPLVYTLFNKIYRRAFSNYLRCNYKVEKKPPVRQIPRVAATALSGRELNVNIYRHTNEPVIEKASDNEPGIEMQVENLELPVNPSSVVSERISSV
Description: PDSP Primary Binding target: HTR2C - Compounds are tested at 10 uM concentration, plate are incubated at room temperature in the dark for 90 minutes. Reaction are stopped by vacuum filtration onto 0.3% polyethyleneimine soaked filter mats using Filtermate harvester. Scintilation cocktail is then melted onto microwave-dried filters on a hot plate and the radio activity is counted in Microbia counter.

[8] = target: Histamine H2 receptor (Homo sapiens) (UniProt P25021)
Chain of Histamine H2 receptor (Homo sapiens) (P25021 whole entry): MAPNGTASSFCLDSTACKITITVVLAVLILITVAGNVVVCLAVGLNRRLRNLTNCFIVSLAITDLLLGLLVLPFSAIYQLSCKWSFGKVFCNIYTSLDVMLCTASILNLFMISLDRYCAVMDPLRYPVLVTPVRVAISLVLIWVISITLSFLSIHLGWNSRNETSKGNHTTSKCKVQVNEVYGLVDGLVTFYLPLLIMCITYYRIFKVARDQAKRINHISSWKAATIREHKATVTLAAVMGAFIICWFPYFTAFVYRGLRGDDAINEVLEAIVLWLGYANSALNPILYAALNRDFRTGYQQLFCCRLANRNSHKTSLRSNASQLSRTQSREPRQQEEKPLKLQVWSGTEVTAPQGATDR
Description: PDSP Primary Binding target: HRH2 - Compounds are tested at 10 uM concentration, plate are incubated at room temperature in the dark for 90 minutes. Reaction are stopped by vacuum filtration onto 0.3% polyethyleneimine soaked filter mats using Filtermate harvester. Scintilation cocktail is then melted onto microwave-dried filters on a hot plate and the radio activity is counted in Microbia counter.

[9] = target: Mu-type opioid receptor (Homo sapiens) (UniProt P35372)
Description: PDSP Primary Binding target: OPRM1 - Compounds are tested at 10 uM concentration, plate are incubated at room temperature in the dark for 90 minutes. Reaction are stopped by vacuum filtration onto 0.3% polyethyleneimine soaked filter mats using Filtermate harvester. Scintilation cocktail is then melted onto microwave-dried filters on a hot plate and the radio activity is counted in Microbia counter.

[10] = target: Kappa-type opioid receptor (Homo sapiens) (UniProt P41145)
Chain of Kappa-type opioid receptor (Homo sapiens) (P41145 whole entry): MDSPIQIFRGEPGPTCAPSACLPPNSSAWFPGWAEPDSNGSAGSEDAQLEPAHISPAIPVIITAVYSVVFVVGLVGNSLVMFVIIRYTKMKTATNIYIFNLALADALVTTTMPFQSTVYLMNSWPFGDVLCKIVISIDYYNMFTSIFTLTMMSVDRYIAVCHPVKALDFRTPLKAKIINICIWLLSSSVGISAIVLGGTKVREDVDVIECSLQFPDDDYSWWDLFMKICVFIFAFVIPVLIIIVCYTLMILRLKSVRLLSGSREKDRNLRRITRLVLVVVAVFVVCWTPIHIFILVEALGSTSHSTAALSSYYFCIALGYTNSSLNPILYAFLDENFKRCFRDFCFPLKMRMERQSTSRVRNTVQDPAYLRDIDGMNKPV
Description: PDSP Primary Binding target: OPRK1 - Compounds are tested at 10 uM concentration, plate are incubated at room temperature in the dark for 90 minutes. Reaction are stopped by vacuum filtration onto 0.3% polyethyleneimine soaked filter mats using Filtermate harvester. Scintilation cocktail is then melted onto microwave-dried filters on a hot plate and the radio activity is counted in Microbia counter.

[11] = target: 5-hydroxytryptamine receptor 6 (Homo sapiens) (UniProt P50406)
Chain of 5-hydroxytryptamine receptor 6 (Homo sapiens) (P50406 whole entry): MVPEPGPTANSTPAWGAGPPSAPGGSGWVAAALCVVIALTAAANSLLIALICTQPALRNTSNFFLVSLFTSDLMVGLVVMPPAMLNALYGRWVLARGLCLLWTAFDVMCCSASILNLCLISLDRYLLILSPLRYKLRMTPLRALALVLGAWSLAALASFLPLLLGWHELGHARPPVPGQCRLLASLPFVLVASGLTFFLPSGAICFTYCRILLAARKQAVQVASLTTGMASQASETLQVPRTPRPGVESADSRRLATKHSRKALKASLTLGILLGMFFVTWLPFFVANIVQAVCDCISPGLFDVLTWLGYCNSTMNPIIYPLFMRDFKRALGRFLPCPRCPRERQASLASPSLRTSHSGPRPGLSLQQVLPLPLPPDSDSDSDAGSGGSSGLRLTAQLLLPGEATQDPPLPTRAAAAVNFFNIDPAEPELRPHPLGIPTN
Description: PDSP Primary Binding target: HTR6 - Compounds are tested at 10 uM concentration, plate are incubated at room temperature in the dark for 90 minutes. Reaction are stopped by vacuum filtration onto 0.3% polyethyleneimine soaked filter mats using Filtermate harvester. Scintilation cocktail is then melted onto microwave-dried filters on a hot plate and the radio activity is counted in Microbia counter.

[12] = target: T4, Muscarinic acetylcholine receptor M1 (Homo sapiens) (UniProt P11229)
T4 sequence (whole entry): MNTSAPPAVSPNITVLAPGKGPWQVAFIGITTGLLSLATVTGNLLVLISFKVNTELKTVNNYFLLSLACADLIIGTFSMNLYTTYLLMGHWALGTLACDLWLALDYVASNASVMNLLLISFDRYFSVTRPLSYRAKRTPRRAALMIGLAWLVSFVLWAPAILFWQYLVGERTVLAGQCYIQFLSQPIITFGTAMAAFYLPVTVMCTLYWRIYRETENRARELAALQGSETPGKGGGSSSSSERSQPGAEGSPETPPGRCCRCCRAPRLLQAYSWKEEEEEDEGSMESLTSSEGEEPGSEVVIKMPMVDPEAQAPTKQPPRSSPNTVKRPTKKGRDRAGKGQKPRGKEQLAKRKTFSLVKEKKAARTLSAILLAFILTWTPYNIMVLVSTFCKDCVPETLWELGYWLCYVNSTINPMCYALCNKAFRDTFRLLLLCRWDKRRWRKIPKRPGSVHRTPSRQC
Description: PDSP Primary Binding target: CHRM1 - Compounds are tested at 10 uM concentration, plate are incubated at room temperature in the dark for 90 minutes. Reaction are stopped by vacuum filtration onto 0.3% polyethyleneimine soaked filter mats using Filtermate harvester. Scintilation cocktail is then melted onto microwave-dried filters on a hot plate and the radio activity is counted in Microbia counter.

[13] = target: D(2) dopamine receptor (Homo sapiens) (UniProt P14416)
Chain of D(2) dopamine receptor (Homo sapiens) (P14416 whole entry): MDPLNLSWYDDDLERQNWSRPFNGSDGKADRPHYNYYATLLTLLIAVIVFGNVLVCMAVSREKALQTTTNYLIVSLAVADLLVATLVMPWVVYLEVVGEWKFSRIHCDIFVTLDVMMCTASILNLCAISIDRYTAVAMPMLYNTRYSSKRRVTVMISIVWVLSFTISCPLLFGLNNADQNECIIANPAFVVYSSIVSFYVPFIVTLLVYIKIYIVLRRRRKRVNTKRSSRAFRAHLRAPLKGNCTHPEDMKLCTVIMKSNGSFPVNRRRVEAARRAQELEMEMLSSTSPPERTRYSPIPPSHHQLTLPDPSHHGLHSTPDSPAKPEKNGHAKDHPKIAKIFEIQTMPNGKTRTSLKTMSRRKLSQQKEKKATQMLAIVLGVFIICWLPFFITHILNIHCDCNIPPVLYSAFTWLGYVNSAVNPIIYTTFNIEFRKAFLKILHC
Description: PDSP Primary Binding target: DRD2 - Compounds are tested at 10 uM concentration, plate are incubated at room temperature in the dark for 90 minutes. Reaction are stopped by vacuum filtration onto 0.3% polyethyleneimine soaked filter mats using Filtermate harvester. Scintilation cocktail is then melted onto microwave-dried filters on a hot plate and the radio activity is counted in Microbia counter.

[14] = target: Beta-2 adrenergic receptor (Homo sapiens) (UniProt P07550)
Chain of Beta-2 adrenergic receptor (Homo sapiens) (P07550 whole entry, looked up): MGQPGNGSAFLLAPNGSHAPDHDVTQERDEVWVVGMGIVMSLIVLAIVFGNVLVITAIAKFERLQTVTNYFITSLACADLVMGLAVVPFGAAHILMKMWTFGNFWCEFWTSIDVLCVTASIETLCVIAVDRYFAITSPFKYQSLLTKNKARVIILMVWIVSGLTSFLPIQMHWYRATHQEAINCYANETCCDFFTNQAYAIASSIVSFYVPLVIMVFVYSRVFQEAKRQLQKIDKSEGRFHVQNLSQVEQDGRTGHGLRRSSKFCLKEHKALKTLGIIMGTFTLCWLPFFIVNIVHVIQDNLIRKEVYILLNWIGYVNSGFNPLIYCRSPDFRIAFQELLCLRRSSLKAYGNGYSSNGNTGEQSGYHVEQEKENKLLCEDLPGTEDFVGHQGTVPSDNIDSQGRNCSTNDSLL
Description: PDSP Primary Binding target: ADRB2 - Compounds are tested at 10 uM concentration, plate are incubated at room temperature in the dark for 90 minutes. Reaction are stopped by vacuum filtration onto 0.3% polyethyleneimine soaked filter mats using Filtermate harvester. Scintilation cocktail is then melted onto microwave-dried filters on a hot plate and the radio activity is counted in Microbia counter.

[15] = target: 5-hydroxytryptamine receptor 5A (Homo sapiens) (UniProt P47898)
Description: PDSP Primary Binding target: HTR5A - Compounds are tested at 10 uM concentration, plate are incubated at room temperature in the dark for 90 minutes. Reaction are stopped by vacuum filtration onto 0.3% polyethyleneimine soaked filter mats using Filtermate harvester. Scintilation cocktail is then melted onto microwave-dried filters on a hot plate and the radio activity is counted in Microbia counter.

[16] = target: 5-hydroxytryptamine receptor 2B (Homo sapiens) (UniProt P41595)
Chain of 5-hydroxytryptamine receptor 2B (Homo sapiens) (P41595 whole entry): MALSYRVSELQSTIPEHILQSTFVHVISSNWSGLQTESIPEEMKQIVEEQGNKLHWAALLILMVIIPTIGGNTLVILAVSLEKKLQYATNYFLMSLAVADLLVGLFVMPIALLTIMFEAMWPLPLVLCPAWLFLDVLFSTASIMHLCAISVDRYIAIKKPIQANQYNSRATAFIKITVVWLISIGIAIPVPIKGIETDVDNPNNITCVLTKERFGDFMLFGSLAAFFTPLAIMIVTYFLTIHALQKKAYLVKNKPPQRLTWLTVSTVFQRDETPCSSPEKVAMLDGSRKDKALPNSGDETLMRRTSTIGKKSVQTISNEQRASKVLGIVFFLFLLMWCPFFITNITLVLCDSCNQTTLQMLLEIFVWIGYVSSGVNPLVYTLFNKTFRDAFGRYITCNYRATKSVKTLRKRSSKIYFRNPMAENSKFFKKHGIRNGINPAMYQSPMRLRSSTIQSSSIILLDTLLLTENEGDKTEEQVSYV
Description: PDSP Primary Binding target: HTR2B - Compounds are tested at 10 uM concentration, plate are incubated at room temperature in the dark for 90 minutes. Reaction are stopped by vacuum filtration onto 0.3% polyethyleneimine soaked filter mats using Filtermate harvester. Scintilation cocktail is then melted onto microwave-dried filters on a hot plate and the radio activity is counted in Microbia counter.

[17] = target: 5-hydroxytryptamine receptor 1E (Homo sapiens) (UniProt P28566)
Chain of 5-hydroxytryptamine receptor 1E (Homo sapiens) (P28566 whole entry): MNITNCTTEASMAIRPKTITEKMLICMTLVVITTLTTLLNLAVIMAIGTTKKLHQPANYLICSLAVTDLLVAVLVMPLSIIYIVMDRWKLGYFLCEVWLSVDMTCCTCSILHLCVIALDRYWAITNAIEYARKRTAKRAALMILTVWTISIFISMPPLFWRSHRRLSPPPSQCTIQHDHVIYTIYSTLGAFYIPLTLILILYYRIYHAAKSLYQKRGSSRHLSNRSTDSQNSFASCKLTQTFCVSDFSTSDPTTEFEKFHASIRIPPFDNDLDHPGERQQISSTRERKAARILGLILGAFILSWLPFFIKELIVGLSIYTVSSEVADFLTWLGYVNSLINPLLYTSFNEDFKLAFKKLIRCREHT
Description: PDSP Primary Binding target: HTR1E - Compounds are tested at 10 uM concentration, plate are incubated at room temperature in the dark for 90 minutes. Reaction are stopped by vacuum filtration onto 0.3% polyethyleneimine soaked filter mats using Filtermate harvester. Scintilation cocktail is then melted onto microwave-dried filters on a hot plate and the radio activity is counted in Microbia counter.

[18] = target: Histamine H1 receptor (Homo sapiens) (UniProt P35367)
Chain of Histamine H1 receptor (Homo sapiens) (P35367 whole entry): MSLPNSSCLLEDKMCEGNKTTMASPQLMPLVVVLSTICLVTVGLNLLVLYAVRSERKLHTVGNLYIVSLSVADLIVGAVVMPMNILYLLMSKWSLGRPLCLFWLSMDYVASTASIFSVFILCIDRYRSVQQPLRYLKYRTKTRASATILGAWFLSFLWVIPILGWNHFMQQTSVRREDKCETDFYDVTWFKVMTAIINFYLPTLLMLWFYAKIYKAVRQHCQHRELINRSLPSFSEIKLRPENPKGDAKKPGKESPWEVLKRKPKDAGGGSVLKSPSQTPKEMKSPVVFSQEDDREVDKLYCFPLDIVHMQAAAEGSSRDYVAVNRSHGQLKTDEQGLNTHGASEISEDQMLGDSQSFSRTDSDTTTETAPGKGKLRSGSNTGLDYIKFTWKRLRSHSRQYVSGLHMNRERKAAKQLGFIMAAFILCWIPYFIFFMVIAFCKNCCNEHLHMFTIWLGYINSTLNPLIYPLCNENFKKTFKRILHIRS
Description: PDSP Primary Binding target: HRH1 - Compounds are tested at 10 uM concentration, plate are incubated at room temperature in the dark for 90 minutes. Reaction are stopped by vacuum filtration onto 0.3% polyethyleneimine soaked filter mats using Filtermate harvester. Scintilation cocktail is then melted onto microwave-dried filters on a hot plate and the radio activity is counted in Microbia counter.

[19] = target: 5-hydroxytryptamine receptor 1B (Homo sapiens) (UniProt P28222)
Description: PDSP Primary Binding target: HTR1B - Compounds are tested at 10 uM concentration, plate are incubated at room temperature in the dark for 90 minutes. Reaction are stopped by vacuum filtration onto 0.3% polyethyleneimine soaked filter mats using Filtermate harvester. Scintilation cocktail is then melted onto microwave-dried filters on a hot plate and the radio activity is counted in Microbia counter.

SMILES | inhibition [1] | inhibition [2] | inhibition [3] | inhibition [4] | inhibition [5] | inhibition [6] | inhibition [7] | inhibition [8] | inhibition [9] | inhibition [10] | inhibition [11] | inhibition [12] | inhibition [13] | inhibition [14] | inhibition [15] | inhibition [16] | inhibition [17] | inhibition [18] | inhibition [19]
COc1ccnc(N2CCC3(CCCN(Cc4c[nH]c5ccccc45)C3=O)CC2)n1 | -2.35% | 7.53% | 44.7% | 28.5% | 8.03% | -7.79% | 0.97% | -7.83% | -4.41% | 6.61% | 19.4% | 0.43% | 7% | 11.9% | -9.26% | 23.6% | -3.29% | 23.1% | 
Cc1c(C2=CCN(C(=O)N(C)C(C)C)CC2)nnn1-c1cccnc1F |  | 85.9% |  | -1.95% | -7.92% | -9.61% | -0.1% | 29.8% | 36.2% |  | 1.27% | 2.87% | 11.9% | -6.84% | 7.43% | 6.62% | 20.2% | 60.9% | 
Cc1nnn(-c2ccc(-c3ccc(C4(C(=O)O)CC4)cc3)cc2)c1NC(=O)O[C@H](C)c1ccccc1 |  | 2.49% | 35% | 34.8% |  |  |  | 4.74% | -8.07% | -4.59% | 37.4% | 7.62% | 25.4% | 6.66% | 15.6% | -0.33% | 1.32% | 52.8% | -3.56%
Cc1csc(NC(=O)c2cc(F)cc(Oc3cncnc3)c2)n1 | -7.43% | 1.92% | 56.1% | 72% | 15.3% | -5.33% | 0.59% | 28.4% | -8.28% | 18.9% | 7.85% | -0.94% | 21% | 8.79% | -6.54% | 26.7% | -3.74% | -6.12% | -4.65%
COC1CCN(c2cccc(-c3cc(NC(C)=O)nc(-n4nc(C)cc4C)n3)n2)CC1 |  | 1.6% | 49.2% |  | 0.28% |  | 3.48% | 26% | 27.3% |  | 40.8% | 1.9% | 12.8% | 2.28% | -1.72% | 30.3% | 15.2% | 14.4% | 
